Results on six compounds are retold here after patent US8207189B2, “Compound having affinity for amyloid” (Nihon Medi-Physics Co., Ltd., priority 2007, dated 2012).

For data set [1], the system named is amyloid (aggregated Aβ1-42) injected into amygdaloid nucleus. The data set is described as follows: confirmation of imaging of amyloid in brain (autoradiogram, Aβ1-42 injected rats). The conditions noted are these: brain slice 60 minutes after intravenous injection. It is filed as in vivo, rat. On the procedure:
(§1) (1) Aβ1-42 (manufactured by Wako) was dissolved in phosphate buffer (pH 7.4) and shaken at 37° C. for 72 hours, to obtain a 1 mg/mL suspension of aggregated Aβ (hereinafter referred to as amyloid suspension in the Examples).
(§2) (2) 2.5 μL (corresponding to […]) of the amyloid suspension was injected into an amygdaloid nucleus on one side of a male Wistar rat (7-week old). As a control, 2.5 μL of a phosphate buffered physiological saline solution (pH 7.4) was injected into an amygdaloid nucleus on the other side of the rat. The rats were examined 1 day after the injection of the amyloid suspension and the phosphate buffered physiological saline solution (pH 7.4).
(§3) (3) Compound 1 was dissolved in a 10 mg/mL ascorbic acid-containing physiological saline solution to obtain a sample solution (22 MBq/mL in radioactivity concentration in the sample solution). This solution was injected under thiopental anesthesia into the rat through the tail vein (dosage: 0.5 mL, dosed radioactivity: 11-13 MBq equivalent).
(§4) (4) Brain was removed 60 minutes after the injection to prepare a brain slice of 10 μm in thickness with a microtome (type: CM3050S, manufactured by LEICA). The brain slice was exposed to an imaging plate for 20 hours, and then image analysis was carried out by use of a Bio-imaging Analyzer (type: BAS-2500; manufactured by FUJIFILM Corporation).
(§5) Thus, it was confirmed that amyloid was deposited on the slice (FIG. 6b).
(§6) The same procedures as in Example 12 were performed except using a solution of Compound 2 in a 10 mg/mL ascorbic acid as a sample solution (the radioactive concentration of the sample solution was 25 MBq/mL).
(§7) (1) Aβ1-42 (manufactured by Wako) was dissolved in phosphate buffer (pH 7.4) and shaken at 37° C. for 72 hours, to obtain 1 mg/mL of a suspension of aggregated Aβ (hereinafter referred to as amyloid suspension in the Examples).
(§8) (3) A sample solution (30 MBq/mL in radioactivity concentration, Example 24) in which Compound 4 was dissolved in a 10 mg/mL ascorbic acid-containing physiological saline solution and a sample solution (30 MBq/mL in radioactivity concentration, Example 25) in which Compound 6 was dissolved in a 10 mg/mL ascorbic acid-containing physiological saline solution were prepared. This solution was injected under thiopental anesthesia into the rat through the tail vein (dosage: 0.5 mL, dosed radioactivity: 11-15 MBq equivalent).
(§9) Thus, it was confirmed that amyloid was deposited on the slice (FIG. 12 and FIG. 13).

In data set [2] the target is T1, amyloid (aggregated Aβ1-42) injected into amygdaloid nucleus (Homo sapiens, UniProt P05067).
T1 construct: Aβ1-42 (manufactured by Wako) was dissolved in phosphate buffer (pH 7.4); purchased Wako
The description is as above. It is filed as in vivo, rat. The conditions noted are these: brain slice 60 minutes after intravenous injection, Aβ1-42. How it is done: as §1, §2, §3, §4, §5, §6, §7, §8, §9

A short description of data set [3]: transferability into brain and clearance after intravenous injection. It is filed as in vivo, rat. The conditions noted are these: for Radioactive distribution per unit weight in brain, After 2 min. / Radioactive distribution per unit weight in brain, After 5 min. / Radioactive distribution per unit weight in brain, After 30 min. / Radioactive distribution per unit weight in brain, After 60 min.: male Wistar rats, intravenous injection; for radioactive accumulation in brain two minutes after the injection (in words) / clearance from brain in 60 minutes (in words): rats, intravenous; for Radioactive distribution per unit weight in brain, After 2 min. / radioactive accumulation in brain two minutes after the injection (in words): 2 min. How it is done:
Using Compound 1 (Example 10) and Compound 2 (Example 11), a time course change of radioactive accumulation in brain of male Wistar rats (7-week old) was measured.
A diethyl ether solution of Compound 1 (Example 10) prepared in Example 3, a diethyl ether solution of Compound 2 (Example 11) prepared in Example 6 and a diethyl ether solution of [^123I]-IMPY (Comparative Example 5) prepared in Reference Example 1 were each diluted with 10 mg/mL ascorbic acid-containing physiological saline solution to adjust to a radioactive concentration of 8-12 MBq/mL. 0.05 mL each of the prepared sample solutions was injected under thiopental anesthesia into the tail vein of the rats. The rats were sacrificed by bleeding from abdominal artery, and brains were removed and subjected to measurement of mass of brains and further subjected to measurement of radioactivity (hereinafter referred to as A in this Example) with a single channel analyzer (detector type: SP-20 manufactured by OHYO KOKEN KOGYO Co., Ltd.) 2, 5, 30 and 60 minutes after the injection. Further, the radioactivity level of the rest of the whole body was measured in the same manner as above (hereinafter referred to as B in this Example). Using these measurement results, radioactive distribution per unit weight of brain (% ID/g) at the respective time points were calculated in accordance with the following formula (3).
Three animals were used for the experiment at the respective time points.
Using Compound 4 and Compound 6, a time course change of radioactive accumulation in brain of male Wistar rats (7-week old) was measured.
Compound 4 (Example 22), Compound 6 (Example 23) and a solution of [^123I]-IMPY (Comparative Example 8) prepared above in Reference Example 1 were each diluted with a 10 mg/mL ascorbic acid-containing physiological saline solution to prepare solutions (20-31 MBq/mL in radioactive concentration). 0.05 mL each of the prepared sample solutions was injected under thiopental anesthesia into the tail vein of the respective Wistar rat (7-week old). The rats were sacrificed by bleeding from abdominal artery, and brains were removed and subjected to measurement of mass of brains and further subjected to measurement of radioactivity (hereinafter referred to as A in this Example) with a single channel analyzer (detector type: SP-20 manufactured by OHYO KOKEN KOGYO Co., Ltd.) 2, 5, 30 and 60 minutes after the injection. Further, the radioactivity level of the rest of the whole body was measured in the same manner as above (hereinafter referred to as B in this Example). Using these measurement results, radioactive distribution per unit weight of brain (% ID/g) at the respective time points were calculated in accordance with the following formula (5).

Data set [4] in a line: partition coefficient based on the octanol extraction method. The conditions noted are these: octanol / 10 mmol/L phosphate buffer pH 7.4. It is filed as physicochemical. On the procedure: Partition coefficients based on the octanol extraction method (hereinafter referred to as log Poctanol) were measured, which are generally known as an indicator of permeability of compounds through the blood-brain barrier (hereinafter referred to as BBB).
A diethyl ether solution of Compound 1 prepared in Example 3 (Example 8), a diethyl ether solution of Compound 2 prepared in Example 6 (Example 9), and a diethyl ether solution of [^123I]-IMPY prepared in Reference Example 1 (Comparative Example 4) were each diluted with 10 mg/mL ascorbic acid-containing physiological saline solution, and adjusted to a radioactive concentration of 20-30 MBq/mL. To 2 mL of octanol, 10 μL each of the prepared sample solutions was added, 2 mL of 10 mmol/L phosphate buffer (pH 7.4) was added, followed by stirring for 30 seconds. After the mixture was centrifuged with a low-speed centrifuge (2000 rpm×60 min.), the octanol layer and the water layer were sampled each in an amount of 1 mL, and subjected to measurement of radioactivity count with an autowell gamma system (Type: ARC-301B, manufactured by Aloka). Using the obtained radioactivity count, log Poctanol was calculated in accordance with the equation (2).
A diethyl ether solution (Example 20) of Compound 4 prepared in Example 16, a diethyl ether solution (Example 21) of Compound 6 prepared in Example 19, and a diethyl ether solution (Comparative Example 7) of [^123I]-IMPY were each diluted with a 10 mg/mL ascorbic acid-containing physiological saline solution to adjust to a radioactive concentration of 20-30 MBq/mL. To 2 mL of octanol, 10 μL each of the prepared sample solution was added, and 2 mL of 10 mmol/L phosphate buffer (pH 7.4) was further added, followed by stirring for 30 seconds. After the mixture was centrifuged with a low-speed centrifuge (2000 rpm×60 min.), the octanol layer and the water layer were sampled each in an amount of 1 mL, and subjected to measurement of radioactivity count with an autowell gamma system (Type: ARC-301B, manufactured by Aloka). Using the obtained radioactivity count, log Poctanol was calculated in accordance with the equation (4).

The conditions of data set [5]: WO03/106439; cited from earlier work.
Setting [6] is: Table 4 (Examples 8-9, Comparative Example 4).
Where [7] appears, read: Table 6 (Examples 20-21, Comparative Example 7).

T1 sequence (P05067 672-713): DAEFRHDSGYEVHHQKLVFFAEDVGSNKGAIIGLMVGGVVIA

As to “2-(4′-ethoxyphenyl)-6-[^123I]iodoimidazo[1,2-a]pyridine [Compound 2]”, in data set [1], the “accumulation of radioactivity at sites other than the amyloid injected sites” value was “some radioactive accumulation” and the “accumulation of radioactivity in amygdaloid nucleus on the physiological saline-injected side” value is “no significant accumulation of radioactivity”. Further, in data set [2], the “accumulation of radioactivity in amygdaloid nucleus on the amyloid-injected side” value (from here on “accumulation … on the amyloid-injected side”) is “marked accumulation of radioactivity”. Moreover, in data set [3] (Table 5), the “Radioactive distribution per unit weight in brain, After 2 min.” value was 0.89 % ID/g; the “Radioactive distribution per unit weight in brain, After 5 min.” value amounted to 0.66 % ID/g; the “Radioactive distribution per unit weight in brain, After 30 min.” value is on record as 0.13 % ID/g; the “Radioactive distribution per unit weight in brain, After 60 min.” value was 0.04 % ID/g. Further, in data set [3], the “radioactive accumulation in brain two minutes after the injection (in words)” value (“radioactive accumulation” below) is reported as “significant radioactive accumulation” and the “clearance from brain in 60 minutes (in words)” value (shortened to “clearance from brain”) is “rapidly clear away”. In data set [4] (setting [6]), this compound showed a logPoctanol value of 2.1.

In the case of `CC(=C(C#N)C#N)c1ccc2cc(N(C)CCF)ccc2c1` [FDDNP, 2-(1-{6-[(2-fluoroethyl)(methyl)amino]-2-naphthyl}ethylidene)malononitrile], the “reverse mutation test result” value in data set [5] was “positive”.

With `CN(C)c1ccc(-c2cn3cc(I)ccc3n2)cc1` [IMPY, 6-iodo-2-[4′-(N,N-dimethylamino)phenyl]imidazo[1,2-a]pyridine], the “reverse mutation test result” value in data set [5] was “positive”.

For the compound “2-[4′-(3″-hydroxypropoxy)phenyl]-6-[^123I]iodoimidazo[1,2-a]pyridine [Compound 6]”, in data set [1], the “accumulation of radioactivity at sites other than the amyloid injected sites” value is “little accumulation of radioactivity” and the “accumulation of radioactivity in amygdaloid nucleus on the physiological saline-injected side” value is “no significant accumulation of radioactivity”. In data set [2], the “accumulation … on the amyloid-injected side” value was “marked accumulation of radioactivity”. Besides, in data set [3] (Table 7), the “Radioactive distribution per unit weight in brain, After 2 min.” value was 0.81 % ID/g; the “Radioactive distribution per unit weight in brain, After 5 min.” value is recorded as 0.56 % ID/g; the “Radioactive distribution per unit weight in brain, After 30 min.” value came to 0.07 % ID/g; the “Radioactive distribution per unit weight in brain, After 60 min.” value came out at 0.02 % ID/g. In addition, in data set [3], the “radioactive accumulation” value was “significant accumulation” and the “clearance from brain” value is “rapidly clear away”. The compound further returned a logPoctanol value in data set [4] (setting [7]) of 2.1.

For “2-[3′-(2″-hydroxyethoxy)phenyl]-6-[^123I]iodoimidazo[1,2-a]pyridine [Compound 4]”, in data set [1], the “accumulation of radioactivity at sites other than the amyloid injected sites” value is recorded as “little accumulation of radioactivity” and the “accumulation of radioactivity in amygdaloid nucleus on the physiological saline-injected side” value is reported as “no significant accumulation of radioactivity”. Further, the “accumulation … on the amyloid-injected side” value in data set [2] is recorded as “marked accumulation of radioactivity”. Besides, in data set [3] (Table 7), the “Radioactive distribution per unit weight in brain, After 2 min.” value amounted to 0.56 % ID/g; the “Radioactive distribution per unit weight in brain, After 5 min.” value was 0.28 % ID/g; the “Radioactive distribution per unit weight in brain, After 30 min.” value is on record as 0.04 % ID/g; the “Radioactive distribution per unit weight in brain, After 60 min.” value came out at 0.01 % ID/g. In data set [3], the “radioactive accumulation” value is “significant accumulation” and the “clearance from brain” value is reported as “rapidly clear away”. The logPoctanol value in data set [4] (setting [7]) is given as 2.5.

Turning to “2-[4′-(2″-hydroxyethoxy)phenyl]-6-[^123I]iodoimidazo[1,2-a]pyridine [Compound 1]”, in data set [1], the “accumulation of radioactivity at sites other than the amyloid injected sites” value is “little radioactive accumulation” and the “accumulation of radioactivity in amygdaloid nucleus on the physiological saline-injected side” value is given as “no significant accumulation of radioactivity”. The “accumulation … on the amyloid-injected side” value in data set [2] is “marked accumulation of radioactivity”. Moreover, in data set [3] (Table 5), the “Radioactive distribution per unit weight in brain, After 2 min.” value is 0.90 % ID/g; the “Radioactive distribution per unit weight in brain, After 5 min.” value was found to be 0.52 % ID/g; the “Radioactive distribution per unit weight in brain, After 30 min.” value is 0.06 % ID/g; the “Radioactive distribution per unit weight in brain, After 60 min.” value is recorded as 0.01 % ID/g. Further, in data set [3], the “radioactive accumulation” value was “significant radioactive accumulation” and the “clearance from brain” value is given as “rapidly clear away”. This compound also gave a logPoctanol value in data set [4] (setting [6]) of 1.8.
